This note sets out measurements from ChEMBL document CHEMBL1201862, “PubChem BioAssay data set” (2004).

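1) Cells in 96-well plates. 2) Compound, 48 h, 5 concentrations. 3) Linear interpolation between surrounding doses. 4) Unreached endpoint = highest concentration. GI50 is the concentration that inhibits growth by half.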 Active and inactive are the calls of the source. No stated cut-off is given here; in the data, active = GI50 up to about 1.1 µM and inactive = higher. Some results are limits rather than exact numbers.

Common to all, as to assay: NCI tumour cell line growth inhibition, 48 h
Experiment [1] deals with SK-MEL-5.
Experiment [2] concerns ACHN.
The subject of experiment [3] is SK-OV-3.
In experiment [4] the test system is CAKI-1.
Experiment [5] deals with MCF7.
The test system of experiment [6] is MDA-MB-435.
Experiment [7] relates to MDA-N.
The subject of experiment [8] is CCRF-CEM.
The subject of experiment [9] is Hs-578T.
Experiment [10] has as its system MDA-MB-231.
The test system of experiment [11] is UACC-257.
Experiment [12] concerns EKVX.
The subject of experiment [13] is PC-3.
Experiment [14] concerns SR.
The subject of experiment [15] is T47D.
In experiment [16] the test system is UACC-62.
Experiment [17] deals with RXF 393.
Experiment [18] concerns HOP-92.
In experiment [19] the test system is A498.
Experiment [20] relates to HCC 2998.

Regarding `Cc1ccc2c(C(=O)c3c(C)n(CCN4CCOCC4)c4ccccc34)cccc2c1`, the GI50 is 0.581 µM (active) in experiment [1]; 28.6 µM (inactive) in [2]; 12.8 µM (inactive) in [3]; 25.1 µM (inactive) in experiment [4]; 3.53 µM (inactive) in experiment [5]; 2.29 µM (inactive) in [6]. Besides, the GI50 is 4.06 µM (inactive) in experiment [7]; 1.79 µM (inactive) in experiment [8]; 4.14 µM (inactive) in experiment [9]; 17.3 µM (inactive) in experiment [10]; 16.3 µM (inactive) in [11]; 20.5 µM (inactive) in experiment [12]. Moreover, the GI50 in experiment [13] was 11.9 µM (inactive); in experiment [14], 6.43 µM (inactive); in experiment [15], 17.2 µM (inactive); in experiment [16], 14.3 µM (inactive); in experiment [17], 13.9 µM (inactive); in experiment [18], 19.1 µM (inactive). For the same molecule, the GI50 in experiment [19] was 28.6 µM (inactive).

Regarding `Cc1ccc2nc(-c3ccc(-c4nc5ccc(C)cc5o4)c(O)c3)oc2c1`, the GI50 in experiment [1], in [2], in experiment [3], in [5], in experiment [6] and in experiment [7] was > 100 µM (inactive) throughout. For the same molecule, the GI50 in [8], in experiment [9], in [10], in [13], in [20] and in [14] was > 100 µM (inactive) each time. Further, the GI50 in experiment [15], in experiment [16], in experiment [18] and in [19] was > 100 µM (inactive) each time.

As for `Cc1occc(=O)c1O` [MALTOL], the GI50 in experiment [1], in [2], in experiment [4], in experiment [5], in experiment [6] and in experiment [7] was > 100 µM (inactive) each time. In addition, the GI50 in experiment [8] is > 100 µM (inactive); in experiment [9] it was > 100 µM (inactive); in experiment [10], 3.84 µM (inactive); in experiment [11], > 100 µM (inactive); in experiment [12] it was > 100 µM (inactive); in experiment [13], > 100 µM (inactive). In addition, the GI50 in experiment [20], in experiment [14], in experiment [15] and in experiment [18] was > 100 µM (inactive) each time.

For the molecule `O=C(Oc1ccc(C(c2c(O)c3ccccc3oc2=O)c2c(O)c3ccccc3oc2=O)cc1)c1ccc(C(=O)c2ccccc2)cc1`, the GI50 was 29.3 µM (inactive) in [1]; 19.3 µM (inactive) in experiment [2]; 16.7 µM (inactive) in experiment [3]; 28 µM (inactive) in experiment [4]; 29.4 µM (inactive) in experiment [5]; 20.3 µM (inactive) in [6]. For the same molecule, the GI50 in experiment [7] was 36.1 µM (inactive); in experiment [8], 22.6 µM (inactive); in experiment [9], 37.7 µM (inactive); in [10], 35.6 µM (inactive); in experiment [11], 17.2 µM (inactive); in experiment [12], 16.7 µM (inactive). Also, the GI50 in experiment [13] is 18.7 µM (inactive); in experiment [20], 18.8 µM (inactive); in experiment [14] it was 26.1 µM (inactive); in experiment [15] it was 34.5 µM (inactive); in [16] it was 19.6 µM (inactive); in [17], 27.3 µM (inactive).

As to `N#Cc1cc(N(CCCl)CCCl)c([N+](=O)[O-])cc1[N+](=O)[O-]`, the GI50 in [1] was > 100 µM (inactive); in experiment [2] it was 18.1 µM (inactive); in experiment [3], > 100 µM (inactive); in [4] it was 11.1 µM (inactive); in experiment [5] it was 86.3 µM (inactive); in [6], > 100 µM (inactive). In addition, the GI50 was > 100 µM (inactive) in experiment [7]; 19.2 µM (inactive) in experiment [8]; > 100 µM (inactive) in experiment [9]; > 100 µM (inactive) in [10]; > 100 µM (inactive) in experiment [11]; > 100 µM (inactive) in experiment [12]. Also, the GI50 in experiment [13] was > 100 µM (inactive); in [14], 2.89 µM (inactive); in experiment [15], 11.4 µM (inactive); in experiment [16] it was > 100 µM (inactive); in experiment [18], > 100 µM (inactive); in [19], > 100 µM (inactive).

On to `Cn1c(=S)c2nc(SCCN3C(=O)c4ccccc4C3=O)[nH]c2n(C)c1=O`, for which the GI50 was > 100 µM (inactive) in [1]; > 100 µM (inactive) in experiment [2]; > 100 µM (inactive) in experiment [3]; > 100 µM (inactive) in experiment [4]; 32.7 µM (inactive) in experiment [5]; > 100 µM (inactive) in experiment [6]. Also, the GI50 in experiment [7] was > 100 µM (inactive); in experiment [8] it was 17.3 µM (inactive); in [9], > 100 µM (inactive); in experiment [10], > 100 µM (inactive); in [11] it was > 100 µM (inactive); in experiment [12] it was > 100 µM (inactive). Also, the GI50 in experiment [13] was > 100 µM (inactive); in experiment [14] it was 3.75 µM (inactive); in [15] it was > 100 µM (inactive); in [16], > 100 µM (inactive); in [17], > 100 µM (inactive); in [18], > 100 µM (inactive). Moreover, the GI50 in [19] was > 100 µM (inactive).

With `COC(=O)c1cccc2c1Oc1ccccc1S2`, the GI50 is 18.9 µM (inactive) in [1]; 61.2 µM (inactive) in experiment [2]; > 100 µM (inactive) in experiment [3]; 14.5 µM (inactive) in experiment [4]; 37.2 µM (inactive) in experiment [5]; > 100 µM (inactive) in experiment [6]. Besides, the GI50 in [7] was > 100 µM (inactive); in [8], 23.4 µM (inactive); in [9], 40.6 µM (inactive); in [10] it was 38.7 µM (inactive); in experiment [11], > 100 µM (inactive); in experiment [12], 39.4 µM (inactive). The GI50 in experiment [13] was 63.2 µM (inactive); in experiment [14] it was > 100 µM (inactive); in experiment [15], 32.3 µM (inactive); in experiment [16], > 100 µM (inactive); in [17], 33 µM (inactive); in [18], 25.8 µM (inactive). For the same molecule, the GI50 in experiment [19] is 85.3 µM (inactive).

Take `Cc1ccc(C(=O)OCC(C)C)cc1/N=N/N(C)C`: the GI50 was > 60.4 µM (inactive) in [1]; 54.8 µM (inactive) in experiment [2]; > 100 µM (inactive) in experiment [3]; 43.8 µM (inactive) in [4]; 30.9 µM (inactive) in experiment [5]; 95.9 µM (inactive) in experiment [6]. The GI50 in [7] was > 100 µM (inactive); in [8], > 100 µM (inactive); in experiment [9], > 100 µM (inactive); in experiment [10] it was > 100 µM (inactive); in experiment [11], 26 µM (inactive); in [12] it was > 100 µM (inactive). Further, the GI50 in experiment [13] was 48.4 µM (inactive); in experiment [20] it was > 100 µM (inactive); in experiment [14], 70.5 µM (inactive); in experiment [15], 35.3 µM (inactive); in experiment [16] it was > 100 µM (inactive); in [18] it was > 65 µM (inactive).

Regarding `Oc1ccc2oc3c(O)c4ccccc4cc3c2c1`, the GI50 in experiment [1] is 2.85 µM (inactive); in experiment [2], 2.12 µM (inactive); in [3], 16.2 µM (inactive); in [4], 5.32 µM (inactive); in experiment [5], 3.33 µM (inactive); in experiment [6] it was 0.948 µM (active). In addition, the GI50 was 0.927 µM (active) in experiment [7]; 1.5 µM (inactive) in experiment [8]; 23.2 µM (inactive) in experiment [9]; 12.8 µM (inactive) in experiment [10]; 52 µM (inactive) in [11]; 4.06 µM (inactive) in experiment [13]. The GI50 in [14] was 1.72 µM (inactive); in experiment [15], 20.3 µM (inactive); in [16], 0.121 µM (active); in experiment [17], 2.44 µM (inactive); in experiment [18], 10.7 µM (inactive); in [19] it was 2.45 µM (inactive).

In the case of `CC1=C(C)CC2(C=C(C(C)(C)C)C(=O)C(C(C)(C)C)=C2)SC1`, the GI50 in experiment [1] was 13.2 µM (inactive); in [3], 25 µM (inactive); in experiment [4] it was 21.5 µM (inactive); in [5], 15.6 µM (inactive); in experiment [6], 19.5 µM (inactive); in experiment [7], 27.2 µM (inactive). The GI50 in experiment [8] is 19.8 µM (inactive); in experiment [9], 16.9 µM (inactive); in experiment [10], 14.3 µM (inactive); in experiment [11], 26.6 µM (inactive); in experiment [12] it was 18.6 µM (inactive); in [13], 26.7 µM (inactive). Besides, the GI50 is 26.5 µM (inactive) in [14]; 27.9 µM (inactive) in [15]; 29.2 µM (inactive) in experiment [16]; 18.5 µM (inactive) in [17]; 19.2 µM (inactive) in experiment [18]; 17.5 µM (inactive) in experiment [19].

`COC(=O)/C=C\C(C#N)(C#N)/N=C/c1ccc(Br)s1`: the GI50 in experiment [1] is 11.9 µM (inactive); in experiment [2] it was 2.29 µM (inactive); in experiment [3] it was 19.2 µM (inactive); in experiment [4], 2.45 µM (inactive); in [5], 2.47 µM (inactive); in experiment [6], 5.56 µM (inactive). Also, the GI50 in [7] was 7.98 µM (inactive); in experiment [8] it was 0.853 µM (active); in [9], 25.3 µM (inactive); in experiment [10], 2.18 µM (inactive); in [11], 15.1 µM (inactive); in [12], 12.2 µM (inactive). Moreover, the GI50 in experiment [13] was 13.4 µM (inactive); in [20], 19.1 µM (inactive); in experiment [15] it was 3.52 µM (inactive); in experiment [16], 10.7 µM (inactive); in experiment [17] it was 2.03 µM (inactive); in experiment [18], 1.93 µM (inactive). Also, the GI50 in experiment [19] is 17.7 µM (inactive).
